Assay results as given in patent US20080221132A1, “Multi-Functional Small Molecules as Anti-Proliferative Agents” (priority 2006, published 2008).

Key:
[1] = system: HDAC (HeLa nuclear extract); assay: HDAC fluorimetric assay kit (AK-500, Biomol), HeLa nuclear extract; format: biochemical; settings: TABLE 1-B, Section 1 compounds; read-out: HDAC (IC50 grading)
Protocol: (§1) HDAC inhibitors were screened using an HDAC fluorimetric assay kit (AK-500, Biomol, Plymouth Meeting, Pa.). […] Each assay was setup as follows: Defrosted all kit components and kept on ice until use. […] Prepared dilutions of Trichostatin A (TSA, positive control) and tested compounds in assay buffer (5× of final concentration). Diluted Fluor de Lys™ Substrate in assay buffer to 100 uM (50 fold=2× final). Diluted Fluor de Lys™ developer concentrate 20-fold (e.g. 50 μl plus 950 μl Assay Buffer) in cold assay buffer. Second, diluted the 0.2 mM Trichostatin A 100-fold in the 1× Developer (e.g. 10 μl in 1 ml; final Trichostatin A concentration in the 1× Developer=2 μM; final concentration after addition to HDAC/Substrate reaction=1 μM). Added Assay buffer, diluted trichostatin A or test inhibitor to appropriate wells of the microtiter plate. Added diluted HeLa extract or other HDAC sample to all wells except for negative controls.
HDAC inhibitors were screened using an HDAC fluorimetric assay kit (AK-500, Biomol, Plymouth Meeting, Pa.).
Each assay was setup as follows: Defrosted all kit components and kept on ice until use. […] Prepared dilutions of Trichostatin A (TSA, positive control) and tested compounds in assay buffer (5× of final concentration). Diluted Fluor de Lys™ Substrate in assay buffer to 100 uM (50 fold=2× final). Diluted Fluor de Lys™ developer concentrate 20-fold (e.g. 50 μl plus 950 μl Assay Buffer) in cold assay buffer. Second, diluted the 0.2 mM Trichostatin A 100-fold in the 1× Developer (e.g. 10 μl in 1 ml; final Trichostatin A concentration in the 1× Developer=2 μM; final concentration after addition to HDAC/Substrate reaction=1 μM). Added Assay buffer, diluted trichostatin A or test inhibitor to appropriate wells of the microtiter plate. Added diluted HeLa extract or other HDAC sample to all wells except for negative controls.
HDAC inhibitors is screened using an HDAC fluorimetric assay kit (AK-500, Biomol, Plymouth Meeting, Pa.).
Each assay is setup as follows: Defrost all kit components and kept on ice until use. […] Prepare dilutions of Trichostatin A (TSA, positive control) and tested compounds in assay buffer (5× of final concentration). Dilute Fluor de Lys™ Substrate in assay buffer to 100 uM (50 fold=2× final). Dilute Fluor de Lys™ developer concentrate 20-fold (e.g. 50 μl plus 950 μl Assay Buffer) in cold assay buffer. Second, dilute the 0.2 mM Trichostatin A 100-fold in the 1× Developer (e.g. 10 μl in 1 ml; final Trichostatin A concentration in the 1× Developer=2 μM; final concentration after addition to HDAC/Substrate reaction=1 μM). Add Assay buffer, dilute trichostatin A or test inhibitor to appropriate wells of the microtiter plate. Add diluted HeLa extract or other HDAC sample to all wells except for negative controls.
as §1, with “assay buffer)” for “Assay Buffer)”, “assay” for “Assay”
CDK2/cyclinE: 0.5 nM CDK2/cyclinE and 5 μM Histon H1 are in the reaction buffer plus 1 μM ATP and 1% DMSO final. Incubate for 2 hours at room temperature. […] Incubate for 2 hours at room temperature.

Pancreas_BxPC3 = assay: Cell proliferation assay (ATPlite), BxPC3; format: cell-based; settings: Homo sapiens, BXPC-3; TABLE C; 72 hours, 0.5% fetal bovine serum, ATP content; read-out: IC50 grading, Pancreas_BxPC3
Protocol: (§2) A representative number of compounds were assayed against several different cell lines using the cell proliferation assay:
(§3) Cell Proliferation Assay:
(§4) Cancer cell lines were plated at 5,000 to 10,000 per well in 96-well flatted bottomed plates with various concentration of compounds. The cells were incubated with compounds for 72 hours in the presence of 0.5% of fetal bovine serum. Growth inhibition was accessed by adenosine triphosphate (ATP) content assay using Perkin Elmer ATPlite kit. ATPlite is an ATP monitoring system based on firefly luciferase. Briefly, 25 μl of mammalian cell lysis solution was added to 50 μl of phenol red-free culture medium per well to lyse the cells and stabilize the ATP. 25 μl of substrate solution was then added to the well and subsequently the luminescence was measured.

Pancreas_MiaPaCa2 = assay: Cell proliferation assay (ATPlite), MiaPaCa2; format: cell-based; settings: Homo sapiens, MIA PaCa-2; TABLE C; 72 hours, 0.5% fetal bovine serum, ATP content; read-out: IC50 grading, Pancreas_MiaPaCa2
Protocol: as §2, §3, §4

Pancreas_HPAC = assay: Cell proliferation assay (ATPlite), HPAC; format: cell-based; settings: Homo sapiens, TABLE C, 72 hours, 0.5% fetal bovine serum, ATP content, read-out: IC50 grading, Pancreas_HPAC
Protocol: as §2, §3, §4

Pancreas_PANC1 = assay: Cell proliferation assay (ATPlite), PANC1; format: cell-based; settings: Homo sapiens, PANC-1; TABLE C; 72 hours, 0.5% fetal bovine serum, ATP content; read-out: IC50 grading, Pancreas_PANC1
Protocol: as §2, §3, §4

Pancreas_CFPAC = assay: Cell proliferation assay (ATPlite), CFPAC; format: cell-based; settings: TABLE C; 72 hours, 0.5% fetal bovine serum, ATP content; read-out: IC50 grading, Pancreas_CFPAC
Protocol: as §2, §3, §4

[2] = system: Colon_HCT116 (HCT116, colon cancer); assay: Cell proliferation assay (ATPlite), HCT116; format: cell-based; settings: Homo sapiens, HCT-116; TABLE C; 72 hours, 0.5% fetal bovine serum, ATP content; read-out: IC50 grading, Colon_HCT116
Protocol: as §2, §3
as §4, with “The cells were incubated with compounds for 72 hours in the presence of 0.5% of fetal bovine serum.” left out

Row | Compound | melting point | IC50 [1] [µM] | IC50 (Pancreas_BxPC3) [µM] | IC50 (Pancreas_MiaPaCa2) [µM] | IC50 (Pancreas_PANC1) [µM] | IC50 (Pancreas_HPAC) [µM] | IC50 (Pancreas_CFPAC) [µM] | other results
1 | Nc1ccc(C(=O)NCCNC(=O)CCCC(=O)NO)cc1 [Compound 29, N-hydroxy-4-(2-(4-aminobenzamido)-ethylcarbamoyl)butanamide] | 158.9 to 159.8 °C |  |  |  |  |  |  | 
2 | CC(C)(C)c1cnc(CSc2cnc(NC(=O)C3CCN(CCCCCC(=O)NO)CC3)s2)o1 [Compound 3, N-(5-((5-tert-butyloxazol-2-yl)methylthio)thiazol-2-yl)-1-(6-(hydroxyamino)-6-oxohexyl)piperidine-4-carboxamide] | 127 to 130 °C |  |  |  |  |  |  | 
3 | Cc1[nH]c(/C=C2\C(=O)Nc3ccc(F)cc32)c(C)c1C(=O)NCCCCCC(=O)NO [Compound 4, N-(5-(hydroxycarbamoyl)pentyl)5-((Z)-(5-fluoro-2-oxoindolin-3-ylidene)methyl)-2,4-dimethyl-1H-pyrrole-3-carboxamide] | 209.7 °C (dec.) |  |  |  |  |  |  | 
4 | COc1cc2ncnc(Nc3ccc(F)c(Cl)c3)c2cc1OCCOc1ccc(/C=C/C(=O)NO)cc1 [Compound 66] |  |  | 1 to 10 | 1 to 10 | 1 to 10 | 1 to 10 | > 10 | 
5 | O=C(CCCCCCOc1ccc2ncnc(Nc3ccc(F)c(Cl)c3)c2c1)NO [Compound 18] |  |  | 0.1 to 1 | 0.1 to 1 | 0.1 to 1 | 1 to 10 | 0.1 to 1 | IC50 [2]: 0.1 to 1 µM
6 | CN(C)CC[C@H](CSc1ccccc1)Nc1ccc(S(=O)(=O)NC(=O)c2ccc(N3CCN(Cc4ccccc4-c4ccc(Cl)cc4)CC3)c(NC(=O)CCCCC(=O)NO)c2)cc1[N+](=O)[O-] [Compound 8, (R)—N^1-(2-(4-((4′-Chlorobiphenyl-2-yl)methyl)piperazin-1-yl)-5-(4-(4-(dimethylamino)-1-(phenylthio)butan-2-ylamino)-3-nitrophenylsulfonylcarbamoyl)phenyl)-N^6-hydroxyadipamide] | 150 °C |  |  |  |  |  |  | 
7 | CC(C)(C)c1cnc(CSc2cnc(NC(=O)C3CCN(CCCC(=O)NO)CC3)s2)o1 [Compound 1, N-(5-((5-tert-butyloxazol-2-yl)methylthio)thiazol-2-yl)-1-(4-(hydroxyamino)-4-oxobutyl)piperidine-4-carboxamide] | 176 to 180 °C |  |  |  |  |  |  | 
8 | COc1cc2ncnc(Nc3ccc(F)c(Cl)c3)c2cc1OCCCCCC(C(=O)NO)C(C)C (stereo not shown) [Compound 112] |  | > 10 |  |  |  |  |  | 
9 | COc1cc2ncnc(Nc3ccc(F)c(Cl)c3)c2cc1NC(=O)CCCCCCC(=O)NO [Compound 40] |  |  | 1 to 10 | 1 to 10 | 1 to 10 | 1 to 10 | 1 to 10 | 
10 | COCCOc1cc2ncnc(Nc3ccc(F)c(Cl)c3)c2cc1NC(=O)CCCCCCC(=O)NO [Compound 70, N^1-(4-(3-chloro-4-fluorophenylamino)-7-(2-methoxyethoxy)quinazolin-6-yl)-N^8-hydroxyoctanediamide] |  |  | 1 to 10 | 1 to 10 | 1 to 10 | > 10 | 1 to 10 | 
11 | Nc1ncnc2c1nc(Sc1cc3c(cc1Br)OCO3)n2CC(=O)NO [Compound 1, 2-(6-amino-8-(6-bromobenzo[d][1,3]dioxol-5-ylthio)-9H-purin-9-yl)-N-hydroxyacetamide] | 230 °C (dec.) |  |  |  |  |  |  | 
12 | Cc1nc(NCCCCCCC(=O)NO)cc(Nc2ncc(C(=O)Nc3c(C)cccc3Cl)s2)n1 [Compound 24, N-(2-chloro-6-methylphenyl)-2-(6-(7-(hydroxyamino)-7-oxoheptylamino)-2-methylpyrimidin-4-ylamino)thiazole-5-carboxamide] | 150.7 °C (dec.) |  |  |  |  |  |  | 
13 | COc1cc2ncnc(N[C@H](C)c3ccccc3)c2cc1OCCCCCC(=O)NO [Compound 77, (R)—N-hydroxy-6-(7-methoxy-4-(1-phenylethylamino)quinazolin-6-yloxy)-hexanamide] |  |  | 1 to 10 | 0.1 to 1 | > 10 | > 10 | 1 to 10 | 
14 | C[C@@H](Nc1ncnc2[nH]c(-c3ccc(OCC(=O)NO)cc3)cc12)c1ccccc1 [Compound 17, (R)—N-hydroxy-2-(4-(4-(1-phenylethylamino)-7H-pyrrolo[2,3-d]pyrimidin-6-yl)phenoxy)acetamide] | 116.8 to 126.8 °C |  |  |  |  |  |  | 

The next lines start with results.

Row | melting point | IC50 [1] [µM] | IC50 (Pancreas_BxPC3) [µM] | IC50 (Pancreas_MiaPaCa2) [µM] | IC50 (Pancreas_PANC1) [µM] | Compound | IC50 (Pancreas_HPAC) [µM] | IC50 (Pancreas_CFPAC) [µM] | other results
15 |  | 0.1 to 1 |  |  |  | COc1cc2ncnc(Nc3ccc(F)c(Cl)c3)c2cc1OCCCOc1ccc(C(=O)NO)cc1 [Compound 202] |  |  | 
16 |  | > 10 |  |  |  | COc1cc2ncnc(Nc3ccc(F)c(Cl)c3)c2cc1NC(=O)Nc1ccc(C(=O)NO)cc1 [Compound 94] |  |  | 
17 |  | 0.1 to 1 |  |  |  | COc1cc2ncnc(Nc3ccc(F)c(Cl)c3)c2cc1OCCCCOc1ccc(C(=O)NO)cc1 [Compound 203] |  |  | 
18 |  |  | 0.1 to 1 | 1 to 10 | 1 to 10 | COc1cc2ncnc(NCc3ccccc3)c2cc1OCCCCCCC(=O)NO [Compound 85, 7-(4-(Benzylamino)-7-methoxyquinazolin-6-yloxy)-N-hydroxyheptanamide] | 1 to 10 | 1 to 10 | IC50 [2]: 0.1 to 1 µM
19 |  | < 0.1 |  |  |  | C#Cc1cc(Nc2ncnc3cc(O)c(OCCCCCCC(=O)NO)cc23)ccc1O [Compound 208] |  |  | 
20 |  | 1 to 10 |  |  |  | COc1cc2ncnc(Nc3ccc(F)c(Cl)c3)c2cc1Oc1ccc(C#CCCC(=O)NO)cc1 [Compound 204] |  |  | 
21 |  |  | 1 to 10 | 1 to 10 | 1 to 10 | COc1cc2ncnc(N[C@H](C)c3ccccc3)c2cc1OCCCCCCC(=O)NO [Compound 79, (R)—N-hydroxy-7-(7-methoxy-4-(1-phenylethylamino)quinazolin-6-yloxy)heptanamide] | > 10 | 1 to 10 | 
22 |  | < 0.1 |  |  |  | C#Cc1cccc(Nc2ncnc3cc(O)c(OCCCCCCC(=O)NO)cc23)c1 [Compound 207] |  |  | 
